Test results from paper PMC8329121 (Journal of Neuroimmune Pharmacology, 2021).
Values joined by “and” are separate entries in the source; they are usually repeats but may differ in a detail not shown here. Equal entries are not always repeated. Where two headings read alike, the source gives them in different places.

How the values were obtained:
[1] = target: T1, hDAT D206L (Homo sapiens, UniProt Q01959, D206L); test: [3H]DA uptake kinetics and inhibition in intact PC12 cells; assay type: cell-based
T1 construct: expressed in transfected cells; host or cells: PC12 cells, transient, pcDNA3.1+
T1 sequence (Q01959 whole entry D206L): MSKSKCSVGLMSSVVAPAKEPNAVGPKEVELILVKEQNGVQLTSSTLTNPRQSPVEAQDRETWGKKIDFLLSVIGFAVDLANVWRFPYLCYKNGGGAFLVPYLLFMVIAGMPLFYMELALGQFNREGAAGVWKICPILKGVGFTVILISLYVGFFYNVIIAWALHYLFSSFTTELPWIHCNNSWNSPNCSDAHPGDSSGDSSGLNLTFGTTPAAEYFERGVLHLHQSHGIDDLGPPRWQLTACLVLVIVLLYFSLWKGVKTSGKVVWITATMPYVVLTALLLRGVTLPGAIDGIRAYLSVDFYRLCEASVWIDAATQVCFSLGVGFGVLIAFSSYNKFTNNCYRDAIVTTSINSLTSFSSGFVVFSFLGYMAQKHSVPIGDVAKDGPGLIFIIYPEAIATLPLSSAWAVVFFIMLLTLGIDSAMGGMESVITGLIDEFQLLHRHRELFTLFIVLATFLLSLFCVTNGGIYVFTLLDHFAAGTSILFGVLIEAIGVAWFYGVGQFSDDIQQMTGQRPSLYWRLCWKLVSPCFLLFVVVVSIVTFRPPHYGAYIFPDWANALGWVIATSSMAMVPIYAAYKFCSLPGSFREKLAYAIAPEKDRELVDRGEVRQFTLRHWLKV

[2] = target: T2, hDAT D381L (Homo sapiens, UniProt Q01959, D381L); test: as above; assay type: cell-based
T2 construct: expressed in transfected cells; host or cells: PC12 cells, transient, pcDNA3.1+
T2 sequence (Q01959 whole entry D381L): as the sequence (Q01959 whole entry D206L) above, with L206D, D381L counted along it

[3] = target: T3, hDAT D206L/H547A (Homo sapiens, UniProt Q01959, D206L/H547A); test: as above; assay type: cell-based
T3 construct: expressed in transfected cells; host or cells: PC12 cells, transient, pcDNA3.1+
T3 sequence (Q01959 whole entry D206L/H547A): as the sequence (Q01959 whole entry D206L) above, with H547A counted along it

[4] = target: T4, hDAT Y88F/D206L/H547A (Homo sapiens, UniProt Q01959, D206L/H547A/Y88F); test: as above; assay type: cell-based
T4 construct: expressed in transfected cells; host or cells: PC12 cells, transient, pcDNA3.1+
T4 sequence (Q01959 1-620 Y88F/D206L/H547A): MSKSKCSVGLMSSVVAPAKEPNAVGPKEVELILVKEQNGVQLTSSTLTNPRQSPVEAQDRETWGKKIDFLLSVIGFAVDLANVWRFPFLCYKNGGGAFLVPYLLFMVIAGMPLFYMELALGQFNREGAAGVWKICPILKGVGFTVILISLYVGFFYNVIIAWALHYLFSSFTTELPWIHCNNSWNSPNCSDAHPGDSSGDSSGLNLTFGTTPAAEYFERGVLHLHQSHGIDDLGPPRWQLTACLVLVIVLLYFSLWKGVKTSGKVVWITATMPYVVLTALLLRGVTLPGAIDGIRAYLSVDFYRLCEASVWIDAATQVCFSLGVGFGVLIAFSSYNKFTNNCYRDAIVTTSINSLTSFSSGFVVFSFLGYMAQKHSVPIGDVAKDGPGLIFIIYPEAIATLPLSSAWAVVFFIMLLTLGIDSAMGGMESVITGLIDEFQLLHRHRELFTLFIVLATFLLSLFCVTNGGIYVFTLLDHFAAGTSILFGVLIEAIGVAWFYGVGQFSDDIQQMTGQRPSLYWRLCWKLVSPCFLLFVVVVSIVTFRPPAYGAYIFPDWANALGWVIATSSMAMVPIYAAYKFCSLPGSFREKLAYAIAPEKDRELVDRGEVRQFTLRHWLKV

[5] = target: T5, WT hDAT (Homo sapiens, UniProt Q01959); conditions: for Vmax of [3H]DA uptake: PC12 cells
T5 sequence (Q01959 whole entry): as the sequence (Q01959 whole entry D206L) above, with L206D counted along it

[6] = target: T6, hDAT H547A (Homo sapiens, UniProt Q01959, H547A); test: Kinetic analysis of [3H]DA uptake with or without 2-BP in PC12 cells; assay type: cell-based; conditions: 15 µM 2-BP
T6 construct: expressed in transfected cells; host or cells: PC12 cells, transient, pcDNA3.1+
T6 sequence (Q01959 whole entry H547A): as the sequence (Q01959 whole entry D206L) above, with L206D, H547A counted along it
Experimental: (§1) This concentration was chosen based on previous studies as well as pilot experiments conducted to determine the optimal concentration (data not shown). […] Intact PC12 cells in 24-well plates transiently expressing WT hDAT or H547A were washed twice with 1× KRH buffer. […] Nonspecific uptake was determined in the presence of 10 µM nomifensine and desipramine. […] specific uptake, nonspecific uptake was subtracted from total uptake. To determine the effects of 2-BP exposure at the 2 h time point, the cells were incubated similarly as above, but allowed to incubate at room temperature for 2 h. After each incubation, cells were washed twice with ice-cold 1× KRH buffer to terminate the […], lysed with 500 µl 1 % SDS, and allowed to shake at room temperature for an hour. Lysates were collected into scintillation vials and radioactivity was measured via liquid scintillation as above. Radioactivity was measured the next day using a liquid scintillation counter (model Tri-Carb 2900TR; PerkinElmer Life and Analytical Sciences, Waltham, MA).

[7] = target: T5, WT hDAT; test: as above; assay type: cell-based; design: expressed in transfected cells; host or cells: PC12 cells, transient, pcDNA3.1+; conditions: 15 µM 2-BP
Experimental: as §1

[8] = target: T1, hDAT D206L; test: [3H]WIN35,428 binding in intact PC12 cells
Experimental: (§2) For the competitive inhibition experiment, assays were performed in duplicate in a final volume of 500 µl. […] Assays were terminated by removal of reaction reagents in well and then washed three times with ice-cold assay buffer. Cells were lysed with 1 % SDS for an hour. Radioactivity was determined as described above.

[9] = target: T3, hDAT D206L/H547A; test: [3H]WIN35,428 binding in intact PC12 cells
Experimental: as §2

[10] = target: T2, hDAT D381L; test: [3H]WIN35,428 binding in intact PC12 cells
Experimental: as §2

[11] = target: T4, hDAT Y88F/D206L/H547A; test: [3H]WIN35,428 binding in intact PC12 cells
Experimental: as §2

[12] = target: T5, WT hDAT; assay type: binding; design: expressed in transfected cells; host or cells: PC12 cells, transient, pcDNA3.1+; conditions: for Bmax of [3H]WIN35,428 binding: PC12 cells; for increase in specific [3H]WIN35,428 binding: Fig. 6d
Experimental: as §2

[13] = ZnCl2 1, 10, 100 µM, concentration-dependent

SMILES: [3H]C(CN)c1ccc(O)c(O)c1 (stereo not drawn) [[^3H]DA, 3,4-ethyl-2[N-^3H]dihydroxyphenylethylamine]
- Vmax of [3H]DA uptake ([1]; PC12 cells): 13.09 ± 3.55 pmol/min/10^5 cells
- Vmax of [3H]DA uptake ([2]; PC12 cells): 4.54 ± 0.95 pmol/min/10^5 cells
- Vmax of [3H]DA uptake ([3]; PC12 cells): 40.82 ± 3.60 pmol/min/10^5 cells
- Vmax of [3H]DA uptake ([4]; PC12 cells): 10.78 ± 0.98 pmol/min/10^5 cells
- Vmax of [3H]DA uptake ([5]; Table 1 series (single mutants)): 12.43 ± 2.50 pmol/min/10^5 cells
- Vmax of [3H]DA uptake ([5]; Table 2 series (double and triple mutants)): 26.62 ± 3.87 pmol/min/10^5 cells

SMILES: NCCc1ccc(O)c(O)c1 [[^3H]DA, 3,4-ethyl-2[N-^3H]dihydroxyphenylethylamine]
- Km ([1]; PC12 cells): 1.66 ± 0.78 µM
- Km ([2]; PC12 cells): 1.04 ± 0.34 µM
- Km ([5]; read-out: Km of [3H]DA uptake, PC12 cells, Table 2 series): 0.45 ± 0.21 µM

SMILES: CCCCCCCCCCCCCCC(Br)C(=O)O (stereo not drawn) [2-BP, 2-bromopalmitate]
- Vmax of [3H]DA uptake in the presence of 2-BP ([6]; 0 h): 6.41 ± 1.45 pmol/min/10^5 cells
- Vmax of [3H]DA uptake in the presence of 2-BP ([6]; 2 h): 5.56 ± 1.93 pmol/min/10^5 cells and 5.66 ± 1.93 pmol/min/10^5 cells
- Vmax of [3H]DA uptake in the presence of 2-BP ([7]; 0 h): 5.36 ± 0.74 pmol/min/10^5 cells
- Vmax of [3H]DA uptake in the presence of 2-BP ([7]; 2 h): 5.55 ± 0.92 pmol/min/10^5 cells

SMILES: COC(=O)[C@H]1[C@@H](c2ccc(F)cc2)C[C@@H]2CC[C@H]1N2C [[^3H]WIN35,428]
- Bmax of [3H]WIN35,428 binding ([8]; PC12 cells): 2.87 ± 0.96 pmol/10^5 cells
- Bmax of [3H]WIN35,428 binding ([9]; PC12 cells): 4.95 ± 1.28 poml/10^5 cells
- Bmax of [3H]WIN35,428 binding ([10]; PC12 cells): 2.00 ± 0.63 pmol/10^5 cells
- Bmax of [3H]WIN35,428 binding ([11]; PC12 cells): 3.50 ± 0.47 poml/10^5 cells
- Bmax of [3H]WIN35,428 binding ([12]; Table 3 series): 3.32 ± 0.58 pmol/10^5 cells
- Bmax of [3H]WIN35,428 binding ([12]; Table 4 series): 2.44 ± 0.40 poml/10^5 cells

SMILES: [Cl-].[Cl-].[Zn+2] [Zn^2+, ZnCl2]
- zinc effect on [3H]DA uptake [1, 13]: decrease
- zinc effect on [3H]DA uptake [2, 13]: decrease
- zinc effect on [3H]DA uptake [3, 13]: decrease
- zinc effect on [3H]DA uptake [4, 13]: decrease
- zinc effect on specific [3H]WIN35,428 binding [8, 13]: increase
- zinc-induced increase in [3H]WIN35,428 binding versus WT hDAT ([9]; 10 and 100 µM Zn2+, Fig. 6d): attenuated
- zinc effect on specific [3H]WIN35,428 binding [10, 13]: increase
- zinc-induced increase in [3H]WIN35,428 binding versus WT hDAT ([11]; 10 and 100 µM Zn2+, Fig. 6d): attenuated
- increase in specific [3H]WIN35,428 binding ([12]; 10 µM Zn2+): 39%
- increase in specific [3H]WIN35,428 binding ([12]; 100 µM Zn2+): 52%
- zinc effect on specific [3H]WIN35,428 binding [12, 13]: increase
